Reference: ChEMBL document CHEMBL1147965, “Dual irreversible kinase inhibitors: quinazoline-based inhibitors incorporating two independent reactive centers with each targeting different cysteine residues in the kinase domains of EGFR and VEGFR-2” (Bioorg Med Chem, 2007)

Legend:
[1] = target: T1, Vascular endothelial growth factor receptor 2 (Homo sapiens, UniProt P35968); assay: Inhibition of human VEGFR2 in presence of 1 mM ATP
[2] = target: T2, Epidermal growth factor receptor (Homo sapiens, UniProt P00533); assay: Inhibition of human EGFR in presence of 1 mM ATP
[3] = target: T2, Epidermal growth factor receptor; assay: Inhibition of human EGFR in presence of 1 uM ATP
[4] = target: T1, Vascular endothelial growth factor receptor 2; assay: Inhibition of human VEGFR2 in presence of 1 uM ATP

T1 sequence (P35968 whole entry): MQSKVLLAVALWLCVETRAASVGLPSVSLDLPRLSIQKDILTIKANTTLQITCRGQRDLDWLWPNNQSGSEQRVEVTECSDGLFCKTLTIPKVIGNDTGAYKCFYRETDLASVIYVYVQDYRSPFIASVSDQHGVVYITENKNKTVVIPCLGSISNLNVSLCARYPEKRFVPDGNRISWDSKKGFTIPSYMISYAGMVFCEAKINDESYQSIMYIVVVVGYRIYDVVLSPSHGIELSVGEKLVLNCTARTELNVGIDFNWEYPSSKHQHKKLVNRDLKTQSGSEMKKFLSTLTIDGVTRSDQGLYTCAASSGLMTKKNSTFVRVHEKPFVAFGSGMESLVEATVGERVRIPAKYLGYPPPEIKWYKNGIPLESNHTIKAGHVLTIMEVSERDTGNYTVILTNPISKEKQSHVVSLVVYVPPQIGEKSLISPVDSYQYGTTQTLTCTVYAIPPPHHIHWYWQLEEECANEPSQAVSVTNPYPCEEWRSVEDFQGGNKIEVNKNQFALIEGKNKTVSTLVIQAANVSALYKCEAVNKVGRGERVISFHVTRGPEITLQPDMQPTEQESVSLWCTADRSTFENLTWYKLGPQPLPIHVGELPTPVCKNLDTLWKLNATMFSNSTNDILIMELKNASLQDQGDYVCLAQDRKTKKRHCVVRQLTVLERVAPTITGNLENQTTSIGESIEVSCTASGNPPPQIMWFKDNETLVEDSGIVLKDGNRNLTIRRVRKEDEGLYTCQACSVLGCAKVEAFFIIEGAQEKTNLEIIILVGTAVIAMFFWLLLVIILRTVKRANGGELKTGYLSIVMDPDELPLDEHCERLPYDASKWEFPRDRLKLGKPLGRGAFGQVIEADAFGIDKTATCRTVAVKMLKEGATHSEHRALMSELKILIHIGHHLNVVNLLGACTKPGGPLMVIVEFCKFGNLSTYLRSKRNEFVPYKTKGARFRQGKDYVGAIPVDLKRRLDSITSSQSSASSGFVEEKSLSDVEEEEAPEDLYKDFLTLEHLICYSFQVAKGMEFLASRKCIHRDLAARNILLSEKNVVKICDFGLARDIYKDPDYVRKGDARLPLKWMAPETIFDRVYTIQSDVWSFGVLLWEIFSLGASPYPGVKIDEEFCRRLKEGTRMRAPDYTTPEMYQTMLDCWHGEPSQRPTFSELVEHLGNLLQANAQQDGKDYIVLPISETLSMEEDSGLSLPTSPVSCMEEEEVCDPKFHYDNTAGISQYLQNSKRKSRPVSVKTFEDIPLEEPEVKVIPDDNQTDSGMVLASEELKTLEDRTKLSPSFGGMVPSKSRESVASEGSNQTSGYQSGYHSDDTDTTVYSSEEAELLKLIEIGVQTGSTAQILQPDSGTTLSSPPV
T2 sequence (P00533 whole entry): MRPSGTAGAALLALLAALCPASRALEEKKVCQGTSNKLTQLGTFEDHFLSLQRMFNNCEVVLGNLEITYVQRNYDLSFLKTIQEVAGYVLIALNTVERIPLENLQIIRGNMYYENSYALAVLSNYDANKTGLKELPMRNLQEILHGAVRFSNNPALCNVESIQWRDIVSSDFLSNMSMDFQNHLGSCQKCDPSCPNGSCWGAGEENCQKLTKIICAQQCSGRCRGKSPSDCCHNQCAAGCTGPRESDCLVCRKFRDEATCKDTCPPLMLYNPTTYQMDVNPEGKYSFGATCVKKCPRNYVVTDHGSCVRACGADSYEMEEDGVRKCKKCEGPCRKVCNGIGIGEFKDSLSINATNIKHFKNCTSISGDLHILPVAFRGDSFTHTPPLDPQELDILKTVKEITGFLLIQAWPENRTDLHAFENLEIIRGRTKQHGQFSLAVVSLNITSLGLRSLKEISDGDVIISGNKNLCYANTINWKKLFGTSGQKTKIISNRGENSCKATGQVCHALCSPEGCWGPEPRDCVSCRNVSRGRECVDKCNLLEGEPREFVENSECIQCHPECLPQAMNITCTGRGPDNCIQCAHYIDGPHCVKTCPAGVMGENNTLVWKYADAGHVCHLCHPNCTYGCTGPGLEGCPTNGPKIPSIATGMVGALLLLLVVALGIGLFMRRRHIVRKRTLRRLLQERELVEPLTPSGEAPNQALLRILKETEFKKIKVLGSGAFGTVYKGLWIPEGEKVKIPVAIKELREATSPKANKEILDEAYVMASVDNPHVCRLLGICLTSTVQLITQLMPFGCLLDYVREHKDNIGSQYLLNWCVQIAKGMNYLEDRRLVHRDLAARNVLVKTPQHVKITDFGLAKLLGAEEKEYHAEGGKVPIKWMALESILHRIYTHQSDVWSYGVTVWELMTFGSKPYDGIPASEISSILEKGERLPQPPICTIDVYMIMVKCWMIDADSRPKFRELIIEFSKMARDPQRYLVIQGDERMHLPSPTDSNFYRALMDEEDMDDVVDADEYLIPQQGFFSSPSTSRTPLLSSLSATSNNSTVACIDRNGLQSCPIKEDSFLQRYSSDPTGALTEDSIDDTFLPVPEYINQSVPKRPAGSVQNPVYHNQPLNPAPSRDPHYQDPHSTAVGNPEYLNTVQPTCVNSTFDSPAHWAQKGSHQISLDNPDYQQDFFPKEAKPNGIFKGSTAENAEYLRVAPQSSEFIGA

| Compound | IC50 [1] [nM] | IC50 [2] [nM] | IC50 [3] [nM] | IC50 [4] [nM] |
| --- | --- | --- | --- | --- |
| CCOc1cc2ncnc(NC3=CC(=O)C(OCc4cccc(F)c4)=CC3=O)c2cc1NC(=O)/C=C/CN(C)C | 348 | 43.1 | 4.1 | 113 |
| CN(C)C/C=C/C(=O)Nc1ccc2ncnc(Nc3ccc(Br)cc3F)c2c1 | – | 704 | < 10 | – |
| CCOc1cc2ncnc(NC3=CC(=O)C(OCc4cccs4)=CC3=O)c2cc1NC(=O)/C=C/CN(C)C | 298 | 295 | 47.5 | 76.2 |
| CCOc1cc2ncnc(NC3=CC(=O)C(OCc4cccc(OC)c4)=CC3=O)c2cc1NC(=O)/C=C/CN(C)C | 1280 | 347 | 107 | 372 |
| CCOc1cc2ncnc(NC3=CC(=O)C(OCc4ccccc4)=CC3=O)c2cc1NC(=O)/C=C/CN(C)C | 783 | 216 | 18.7 | 102 |
| CCOc1cc2ncnc(NC3=CC(=O)C(OCc4ccc(F)c(F)c4)=CC3=O)c2cc1NC(=O)/C=C/CN(C)C | 550 | 894 | 167 | 112 |
| CCOc1cc2ncnc(NC3=CC(=O)C(OC(CF)CF)=CC3=O)c2cc1NC(=O)/C=C/CN(C)C | 303 | 2090 | 283 | 109 |
| CCOc1cc2ncnc(NC3=CC(=O)C(OCc4cccc(Cl)c4)=CC3=O)c2cc1NC(=O)/C=C/CN(C)C | 179 | 35.6 | 12.2 | 80.2 |
| COCCOc1cc2ncnc(NC3=CC(=O)C(OCc4ccccc4)=CC3=O)c2cc1OC | 140 | > 10000 | > 10000 | 53.7 |
| CCOc1cc2ncnc(NC3=CC(=O)C(OCc4cccc(C)c4)=CC3=O)c2cc1NC(=O)/C=C/CN(C)C | 613 | 173 | 24.9 | 189 |
| CCOc1cc2ncnc(NC3=CC(=O)C(OCc4ccccn4)=CC3=O)c2cc1NC(=O)/C=C/CN(C)C | 1010 | 792 | 90.8 | 135 |
| COc1cc2ncnc(Nc3cccc(Br)c3)c2cc1OC | > 10000 | – | – | 1490 |
| CCOc1cc2ncc(C#N)c(Nc3ccc(F)c(Cl)c3)c2cc1NC(=O)/C=C/CN(C)C [PELITINIB] | > 10000 | – | – | 3130 |
| COCCOc1cc2ncnc(NC3=CC(=O)C(OCc4cccc(F)c4)=CC3=O)c2cc1OC | 188 | > 10000 | > 10000 | 46.1 |
| COCCOc1cc2ncnc(NC3=CC(=O)C(OCc4cccc(OC)c4)=CC3=O)c2cc1OC | 250 | > 10000 | 7710 | 50.2 |
| CCOc1cc2ncnc(NC3=CC(=O)C(OC)=CC3=O)c2cc1NC(=O)/C=C/CN(C)C | 1400 | > 10000 | 799 | 379 |
| CCOc1cc2ncc(C#N)c(Nc3ccc(OCc4ccccn4)c(Cl)c3)c2cc1NC(=O)/C=C/CN(C)C [NERATINIB] | > 10000 | – | – | 858 |
